In paper PMC8037814, “Polymorphic Characterization, Pharmacokinetics, and Anti-Inflammatory Activity of Ginsenoside Compound K Polymorphs” (Molecules, 2021):
Where “and” joins values, the source holds several entries; their conditions need not be identical. Equal values may be shown once. Read-outs that look alike come from different tables or passages of the source.

Legend:
[1] = DSC thermal analysis of CK polymorphs; format: physicochemical; details: 20 K/min from 20 to 400 °C, dry nitrogen flow
Description: DSC measurements were performed on a DSC204 Phoenix calorimeter (NETZSCH, Selb, Germany) with a heating rate of 20 K/min from 20 to 400 °C. The dry nitrogen flow was about 50 mL/min. Data were analyzed using NETZSCH analysis software.

[2] = Pharmacokinetics after oral administration of CK polymorphs in rats (20 mg/kg); format: in vivo, Sprague-Dawley rats; details: p.o. 20 mg/kg, individual rats 1-3
Description: All samples were analyzed with a triple quadrupole LC-MS/MS (API 4000 LC-MS/MS, AB Sciex, Framingham, MA, USA) coupled with an Agilent 1200 HPLC system (Agilent Technologies, Palo Alto, CA, USA). The MS was equipped with an electrospray system (ESI). The N2 gas temperature and ion-spray voltage were set to 550 °C and 4.5 kV, respectively. CK was measured in multiple reaction monitoring (MRM) mode using a negative electrospray ionization source at m/z 667.4 → 621.2 for CK (CID 25.6 v) and m/z 271.2 → 228.8 for internal standard (IS, (E)-5-(4-fluorostyryl)-2-isopropylbenzene-1,3-diol, Welichem Biotech Inc., Wayburne Drive Burnaby, BC, Canada) (CID 28.3 v) with a dwell time of 0.1 s.
Rats were divided randomly into 5 groups of six animals each (sex in half) and given 7 days to acclimatize to the facility before the experiments began. The four forms of CK were suspended in 0.5% sodium carboxymethyl cellulose (CMC-Na) solution and orally administered to rats at a dose of 20 mg/kg. A CK solution in a mixed solvent of dimethyl sulfoxide (DMSO)/castor oil/physiologic saline (3:5:92, v/v) was intravenously administered to the remaining group via the tail vein at a dose of 10 mg/kg. Blood samples were collected by retro-orbital puncture at the following times: 0.167, 0.333, 0.667, 1, 2, 3, 4, 6, 9, 12, and 24 h for the oral administration, and at 0.0083, 0.05, 0.133, 0.25, 0.5, 1, 2, 4, 6, and 9 h for the intravenous administration. Plasma samples were obtained by centrifuging a heparinized blood tube at 4000 rpm for 5 min and then stored at −70 °C until analysis.
The procedure for drug extraction from plasma samples was as follows: 0.2 mL acetonitrile, 0.2 mL plasma sample, and 10 μL IS (1 µg/mL) were added into a 1.5 mL Eppendorf-type tube. This mixture was vortexed for 1 min and then treated with 0.8 mL of methyl tert-butyl ether (MTBE) to precipitate the plasma proteins. After a mechanical vortex for 1 min and subsequent centrifugation (4000 rpm, 5 min), 0.8 mL of the supernatant was transferred and blow-dried with N2 at 40 °C in a water bath. Finally, the residue was dissolved in 120 μL of mobile phase, and then 10 μL was subjected to HPLC for analysis. […] Intra- and inter-day precision and accuracy never exceeded 15% by analyzing six replicate samples.
The CK pharmacokinetic parameters in rats, including the area under the curve (AUC(0–t) and AUC(0–∞)), mean residence time (MRT(0–t) and MRT(0–∞)), maximum concentration (Cmax), time to maximum concentration (Tmax), half-life (t1/2), apparent distribution volume (V), and total plasma clearance (CL), were derived from plasma concentration-time curves by using non-compartmental analysis (NCA) with DAS 2.0 software (Drug And Statistics, Mathematical Pharmacology Professional Committee of China, Shanghai, China). The absolute bioavailability (Fabs) was calculated from the dose-adjusted ratio of AUCp.o. to AUCi.v.. One-way analysis of variance (ANOVA) by SPSS 11.5 (SPSS Inc., Chicago, IL, USA) was conducted to compare the primary PK parameters.

[3] = test system: carrageenan-induced acute paw inflammation; test: Paw swelling test induced by carrageenan in rats; format: in vivo, Sprague-Dawley rats; set-up: paw volume: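 right hind paw volume measured with a plethysmometer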; details: listed as From I; for paw volume / paw edema: mean±SD of 6 rats; for edema inhibition: versus model group
Description: Rats were divided into 11 groups of six animals each (sex in half): the normal group, the model group, indomethacin group (1 mg/kg), and form I, II, III, IV groups (each form set 10 mg/kg and 20 mg/kg groups, respectively). Indomethacin and CK were ground and suspended in 0.5% CMC-Na solution. […] The same volume of saline was injected into the normal group. […] Paw edema and inhibitory rate were calculated as the following formula, and the differences among groups were compared with the t-test. Paw edema (%) = (Vn − V0)/V0 × 100%. Vn: paw volume at different time intervals after carrageenan injection. V0: paw volume before carrageenan injection. Inhibitory rate (%) = (Em − Ee)/Em × 100%. Em: paw edema of the model group. Ee: paw edema of the experimental group.

[4] = Pharmacokinetics after oral administration of CK polymorphs in rats (20 mg/kg); format: in vivo, Sprague-Dawley rats; details: 20 mg/kg; for bioavailability: p.o. 20 mg/kg vs i.v. 10 mg/kg, dose-adjusted AUC ratio, read-out: Fabs (absolute bioavailability); for half-life: read-out: t1/2z (converted); for Vd/F: read-out: Vz/F
[5] = 10 mg/kg p.o. qd 3 days, 3h after carrageenan
[6] = 10 mg/kg p.o. qd 3 days, 4h after carrageenan
[7] = 10 mg/kg p.o. qd 3 days, 5h after carrageenan
[8] = 10 mg/kg p.o. qd 3 days, 6h after carrageenan
[9] = 20 mg/kg p.o. qd 3 days, 3h after carrageenan
[10] = 20 mg/kg p.o. qd 3 days, 4h after carrageenan
[11] = 20 mg/kg p.o. qd 3 days, 5h after carrageenan
[12] = 20 mg/kg p.o. qd 3 days, 6h after carrageenan
[13] = female rats, p.o. 20 mg/kg, mean ± SD (n = 3)
[14] = female, Sprague-Dawley, rat, plasma, po, female rats, p.o. 20 mg/kg, mean ± SD (n = 3)
[15] = male rats, p.o. 20 mg/kg, mean ± SD (n = 3)
[16] = male, Sprague-Dawley, rat, plasma, po, male rats, p.o. 20 mg/kg, mean ± SD (n = 3)

For `CC(C)=CCCC(C)(OC1OC(CO)C(O)C(O)C1O)C1CCC2(C)C1C(O)CC1C3(C)CCC(O)C(C)(C)C3CCC12C` [Form I, 20-O-β-D-glucopyranosyl-20(S)-protopanaxadiol], the “DSC onset of the decomposition endotherm (thermodynamical stability)” value [1] was 267.5 °C, the “AUC(0-t)” value ([2]; female rats) was 2017.26 ng·h/mL and 2120.78 ng·h/mL and 2470.06 ng·h/mL and the “AUC(0-∞)” value ([2]; female rats) was 2050.82 ng·h/mL and 2124.00 ng·h/mL and 2473.25 ng·h/mL. The CLz/F ([2]; female rats) was 162 mL/min/kg and 157 mL/min/kg and 135 mL/min/kg, the Cmax ([2]; female rats) was 440.01 ng/mL and 325.66 ng/mL and 594.33 ng/mL and the Vz/F ([2]; female rats) was 56.64 L/kg and 34.89 L/kg and 29.88 L/kg. The “AUC(0-t)” value ([2]; male rats) was 762.48 ng·h/mL and 1612.79 ng·h/mL and 1074.22 ng·h/mL, the “AUC(0-∞)” value ([2]; male rats) was 762.82 ng·h/mL and 1709.08 ng·h/mL and 1092.09 ng·h/mL and the CLz/F ([2]; male rats) was 437 mL/min/kg and 195 mL/min/kg and 305.2 mL/min/kg. For the same compound, the Cmax ([2]; male rats) was 168.60 ng/mL and 425.66 ng/mL and 183.98 ng/mL, the t1/2z ([2]; male rats) was 2.87 h and 3.98 h and 2.06 h and the paw volume ([3]; 10 mg/kg p.o. qd 3 days, 0h (before carrageenan)) was 1.60±0.13. The paw edema [3, 5] was 61.02±11.75%, the paw volume [3, 5] was 2.57±0.14 and the edema inhibition [3, 5] was 5.06%. It also gave a paw edema [3, 6] of 51.30±10.45%, a paw volume [3, 6] of 2.42±0.19 and an edema inhibition [3, 6] of 17.74%. It also gave a paw edema [3, 7] of 34.69±9.89%, a paw volume [3, 7] of 2.15±0.16 and an edema inhibition [3, 7] of 32.99%. The paw edema [3, 8] was 27.53±8.13%, the paw volume [3, 8] was 2.03±0.08 and the edema inhibition [3, 8] was 29.97%. The paw volume ([3]; 20 mg/kg p.o. qd 3 days, 0h (before carrageenan)) was 1.62±0.13, the paw edema [3, 9] was 52.64±19.00% and the paw volume [3, 9] was 2.45±0.16. It also gave an edema inhibition [3, 9] of 18.10%, a paw edema [3, 10] of 43.25±16.04% and a paw volume [3, 10] of 2.30±0.11. For the same compound, the edema inhibition [3, 10] was 30.65%, the paw edema [3, 11] was 31.96±15.31% and the paw volume [3, 11] was 2.12±0.08. For the same compound, the edema inhibition [3, 11] was 38.25%, the paw edema [3, 12] was 24.52±13.39% and the paw volume [3, 12] was 2.00±0.09. The edema inhibition [3, 12] was 37.62%, the t1/2z ([4]; female rats, p.o. 20 mg/kg, individual rats 1-3) was 2.57 h and 2.56 h and the “AUC(0–t)” value [4, 13] was 2202.7 ± 237.26 ng·h/mL. The “AUC(0–∞)” value [4, 13] was 2216.0 ± 225.74 ng·h/mL, the CLz/F [4, 13] was 152 ± 14.7 mL/min/kg and the Cmax [4, 13] was 453.33 ± 134.83 ng/mL and 453.3 ± 134.8 ng/mL. It also gave a Vz/F [4, 13] of 40.5 ± 14.2 L/kg, a t1/2z [4, 13] of 3.0 ± 0.84 h and a bioavailability ([4]; female, Sprague-Dawley, rat, plasma, po, female rats) of 6.84%. The half-life ([4]; female, Sprague-Dawley, rat, plasma, po, female rats, p.o. 20 mg/kg, individual rats 1-3) was 4.03 h, the AUC(0-inf) [4, 14] was 2220 ± 226 ng·h/mL and the Vd/F [4, 14] was 40.5 ± 14.2 L/kg. For the same compound, the half-life [4, 14] was 3.05 ± 0.84 h, the Vz/F ([4]; male rats, p.o. 20 mg/kg, individual rats 1-3) was 77.79 L/kg and 48.49 L/kg and 105.00 L/kg and the “AUC(0–t)” value [4, 15] was 1149.8 ± 430.17 ng·h/mL. The “AUC(0–∞)” value [4, 15] was 1188.0 ± 480.37 ng·h/mL, the CLz/F [4, 15] was 312 ± 121 mL/min/kg and the Cmax [4, 15] was 259.4 ± 144.2 ng/mL. It also gave a Vz/F [4, 15] of 77.1 ± 28.3 L/kg, a t1/2z [4, 15] of 3.0 ± 0.96 h and a bioavailability ([4]; male, Sprague-Dawley, rat, plasma, po, male rats) of 3.92%. It also gave an AUC(0-t) [4, 16] of 1150 ± 430 ng·h/mL, a CL/F ([4]; male, Sprague-Dawley, rat, plasma, po, male rats, p.o. 20 mg/kg, mean ± SD (n = 3), read-out: CLz/F (converted)) of 312 mL/min/kg and a Cmax ([4]; male, Sprague-Dawley, rat, plasma, po, male rats, p.o. 20 mg/kg, mean ± SD (n = 3), read-out: Cmax) of 259 ± 144 ng/mL. It also gave a Vd/F [4, 16] of 77.1 ± 28.3 L/kg and a half-life [4, 16] of 2.97 ± 0.96 h.
